Test results from PubChem BioAssay (NCI).
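Compound exposure: 48 hours, 5 concentrations, 96-well plates. Abbreviation: GI50, concentration required for 50% inhibition of growth. TGI: total growth inhibition.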

Experiments:
Test in all cases: NCI tumour cell line growth inhibition, 48 h
A498 renal = tested on: A498 renal
A549 NSCLC = tested on: A549 NSCLC
ACHN renal = tested on: ACHN renal
BT-549 breast = tested on: BT-549 breast
CAKI-1 renal = tested on: CAKI-1 renal
CCRF-CEM leukemia = tested on: CCRF-CEM leukemia
COLO 205 colon = tested on: COLO 205 colon
DU-145 prostate = tested on: DU-145 prostate
EKVX NSCLC = tested on: EKVX NSCLC
HCC-2998 colon = tested on: HCC-2998 colon
HOP-62 NSCLC = tested on: HOP-62 NSCLC
HOP-92 NSCLC = tested on: HOP-92 NSCLC
HS 578T breast = tested on: HS 578T breast
HT29 colon = tested on: HT29 colon
IGROV1 ovarian = tested on: IGROV1 ovarian
K-562 leukemia = tested on: K-562 leukemia
KM12 colon = tested on: KM12 colon
LOX IMVI melanoma = tested on: LOX IMVI melanoma
M14 melanoma = tested on: M14 melanoma
MALME-3M melanoma = tested on: MALME-3M melanoma
MCF7 breast = tested on: MCF7 breast
MDA-MB-231 breast = tested on: MDA-MB-231 breast
MDA-MB-435 = tested on: MDA-MB-435
MOLT-4 leukemia = tested on: MOLT-4 leukemia
NCI-H226 lung = tested on: NCI-H226 lung
NCI-H23 lung = tested on: NCI-H23 lung
NCI-H460 lung = tested on: NCI-H460 lung
NCI-H522 lung = tested on: NCI-H522 lung
NCI/ADR-RES ovarian = tested on: NCI/ADR-RES ovarian
OVCAR-3 ovarian = tested on: OVCAR-3 ovarian
OVCAR-4 ovarian = tested on: OVCAR-4 ovarian
OVCAR-5 ovarian = tested on: OVCAR-5 ovarian
OVCAR-8 ovarian = tested on: OVCAR-8 ovarian
PC-3 prostate = tested on: PC-3 prostate
RXF 393 renal = tested on: RXF 393 renal
SF-268 CNS = tested on: SF-268 CNS
SF-295 CNS = tested on: SF-295 CNS
SF-539 CNS = tested on: SF-539 CNS
SK-MEL-2 melanoma = tested on: SK-MEL-2 melanoma
SK-MEL-28 melanoma = tested on: SK-MEL-28 melanoma
SK-MEL-5 melanoma = tested on: SK-MEL-5 melanoma
SK-OV-3 ovarian = tested on: SK-OV-3 ovarian
SN12C renal = tested on: SN12C renal
SNB-19 CNS = tested on: SNB-19 CNS
SNB-75 CNS = tested on: SNB-75 CNS
SW-620 colon = tested on: SW-620 colon
T-47D breast = tested on: T-47D breast
TK-10 renal = tested on: TK-10 renal
UACC-257 melanoma = tested on: UACC-257 melanoma
UACC-62 melanoma = tested on: UACC-62 melanoma

Compound: O=C(/C=C/c1ccco1)c1ccc(Nc2ccnc3cc(Cl)ccc23)cc1
- GI50 (A498 renal): 1.29 µM
- TGI (A498 renal): > 100 µM
- GI50 (A549 NSCLC): > 100 µM
- TGI (A549 NSCLC): > 100 µM
- GI50 (ACHN renal): > 100 µM
- TGI (ACHN renal): > 100 µM
- GI50 (BT-549 breast): > 100 µM
- TGI (BT-549 breast): > 100 µM
- GI50 (CAKI-1 renal): > 100 µM
- TGI (CAKI-1 renal): > 100 µM
- GI50 (CCRF-CEM leukemia): 6.56 µM
- TGI (CCRF-CEM leukemia): > 100 µM
- GI50 (COLO 205 colon): 39.2 µM
- TGI (COLO 205 colon): > 100 µM
- GI50 (DU-145 prostate): 9.33 µM
- TGI (DU-145 prostate): > 100 µM
- GI50 (EKVX NSCLC): > 100 µM
- TGI (EKVX NSCLC): > 100 µM
- GI50 (HCC-2998 colon): > 100 µM
- TGI (HCC-2998 colon): > 100 µM
- GI50 (HOP-62 NSCLC): > 100 µM
- TGI (HOP-62 NSCLC): > 100 µM
- GI50 (HOP-92 NSCLC): 15 µM
- TGI (HOP-92 NSCLC): 62 µM
- GI50 (HS 578T breast): > 100 µM
- TGI (HS 578T breast): > 100 µM
- GI50 (HT29 colon): 3.09 µM
- TGI (HT29 colon): > 100 µM
- GI50 (IGROV1 ovarian): 15.2 µM
- TGI (IGROV1 ovarian): > 100 µM
- GI50 (K-562 leukemia): 2.97 µM
- TGI (K-562 leukemia): > 100 µM
- GI50 (KM12 colon): 3.17 µM
- TGI (KM12 colon): > 100 µM
- GI50 (LOX IMVI melanoma): 6.41 µM
- TGI (LOX IMVI melanoma): > 100 µM
- GI50 (M14 melanoma): 70.7 µM
- TGI (M14 melanoma): > 100 µM
- GI50 (MALME-3M melanoma): > 100 µM
- TGI (MALME-3M melanoma): > 100 µM
- GI50 (MCF7 breast): 1.46 µM
- TGI (MCF7 breast): 4.55 µM
- GI50 (MDA-MB-231 breast): 12.8 µM
- TGI (MDA-MB-231 breast): 34.7 µM
- GI50 (MDA-MB-435): > 100 µM
- TGI (MDA-MB-435): > 100 µM
- GI50 (MOLT-4 leukemia): 3.18 µM
- TGI (MOLT-4 leukemia): > 100 µM
- GI50 (NCI-H226 lung): > 100 µM
- TGI (NCI-H226 lung): > 100 µM
- GI50 (NCI-H23 lung): > 100 µM
- TGI (NCI-H23 lung): > 100 µM
- GI50 (NCI-H460 lung): 2.13 µM
- TGI (NCI-H460 lung): > 100 µM
- GI50 (NCI-H522 lung): > 100 µM
- TGI (NCI-H522 lung): > 100 µM
- GI50 (NCI/ADR-RES ovarian): 75.8 µM
- TGI (NCI/ADR-RES ovarian): > 100 µM
- GI50 (OVCAR-3 ovarian): 4.73 µM
- TGI (OVCAR-3 ovarian): > 100 µM
- GI50 (OVCAR-4 ovarian): 39.9 µM
- TGI (OVCAR-4 ovarian): > 100 µM
- GI50 (OVCAR-5 ovarian): 52 µM
- TGI (OVCAR-5 ovarian): > 100 µM
- GI50 (OVCAR-8 ovarian): > 100 µM
- TGI (OVCAR-8 ovarian): > 100 µM
- GI50 (PC-3 prostate): 4.99 µM
- TGI (PC-3 prostate): 41.3 µM
- GI50 (RXF 393 renal): 20.9 µM
- TGI (RXF 393 renal): > 100 µM
- GI50 (SF-268 CNS): > 100 µM
- TGI (SF-268 CNS): > 100 µM
- GI50 (SF-295 CNS): > 100 µM
- TGI (SF-295 CNS): > 100 µM
- GI50 (SF-539 CNS): 15 µM
- TGI (SF-539 CNS): > 100 µM
- GI50 (SK-MEL-2 melanoma): 76.7 µM
- TGI (SK-MEL-2 melanoma): > 100 µM
- GI50 (SK-MEL-28 melanoma): 74.9 µM
- TGI (SK-MEL-28 melanoma): > 100 µM
- GI50 (SK-MEL-5 melanoma): 12 µM
- TGI (SK-MEL-5 melanoma): > 100 µM
- GI50 (SK-OV-3 ovarian): > 100 µM
- TGI (SK-OV-3 ovarian): > 100 µM
- GI50 (SN12C renal): > 100 µM
- TGI (SN12C renal): > 100 µM
- GI50 (SNB-19 CNS): > 100 µM
- TGI (SNB-19 CNS): > 100 µM
- GI50 (SNB-75 CNS): > 100 µM
- TGI (SNB-75 CNS): > 100 µM
- GI50 (SW-620 colon): 3.51 µM
- TGI (SW-620 colon): > 100 µM
- GI50 (T-47D breast): 82.2 µM
- TGI (T-47D breast): > 100 µM
- GI50 (TK-10 renal): > 100 µM
- TGI (TK-10 renal): > 100 µM
- GI50 (UACC-257 melanoma): 76 µM
- TGI (UACC-257 melanoma): > 100 µM
- GI50 (UACC-62 melanoma): > 100 µM
- TGI (UACC-62 melanoma): > 100 µM
